Assays:
BALB/c male mice = assay: Mouse model for pruritus: scratching after compound 48/80; assay type: in vivo
Procedure: The animals used were BALB/c male mice, weighing 27-33 g. One mouse was used per compound tested, except for two control mice receiving saline; two different mice were tested with (+) methadone, each with a different dose. Compound 48/80 (Kuraishi, Y. et al., European Journal of Pharmacology 275:229-233, 1995), 0.5 mg/ml in saline, was injected subcutaneously in a volume of 0.1 ml, between the shoulder blades of the mouse. Test compounds, dissolved in saline, were injected intraperitoneally in a volume of 0.1 ml per 10 g, either 10 minutes before or 30 minutes after injection of compound 48/80. The cumulative number of scratches with a hind leg were recorded at 10 minute intervals for 60 minutes following the injection of compound 48/80. See Tables 2 and 3, as well as FIGS. 4, 5A and 5B, showing the effectiveness of the compounds tested: naltrexone, dextromethorphan, (+) methadone, haloperidol, and (+) naloxone.

crib-biting horses = assay: Rate of crib-biting in horses after drug treatment; assay type: in vivo, horse
Procedure: Horses were admitted to the Large Animal Hospital of Tufts University School of Veterinary Medicine or were tested in their home barn. Cribbing straps and food were removed prior to testing. Control rates of crib-biting were observed and recorded for 5 minute intervals for one hour or more after an intravenous injection of 0.15 M saline. Test drugs were administered orally (by gavage) or by injection into the jugular vein. Solutions were made up with physiological saline and sterilized by filtration through a 0.2 micron filter (Millipore).
For the experimental data shown in FIG. 1, after establishment of a stable control rate of approximately 10 crib-bites per minute, 50 mg of D-methadone-HCl in 25 ml saline was injected i.v. In FIG. 1, the cumulative number of crib-bites was plotted against time as was the rate per 5 minute interval (Shuster, L. and N. H. Dodman, pp. 185-202, In Psychopharmacology of Animal Behavior Disorders, (N. H. Dodman and L. Shuster, eds.), Blackwell Scientific, Malden, Mass., 1998). […] The control rate then resumed during the next 80 minutes of observation. Horses were observed continuously during scoring for side effects that might be attributed to the treatment. These included changes in posture, disposition and motor activity. See also Table 1.

stall-walking horse = assay: Stall-walking (turning) in a horse, circuits around the stall; assay type: in vivo; conditions: horse Full Circle (turning), 1.0 mg/kg, iv.
Procedure: Dextromethorphan-HBr, 1.0 mg/kg i.v., was injected after 60 minutes of control observations, to test its effect on a stall-walking horse. When measuring “stall walking” locomotor activity, each circuit around the stall was scored as one rotation. Cumulative rotations per 5 minute interval were plotted against time to establish the rate of circling. The results of the experiment are plotted in FIG. 2. See also Table 1.

[1] = 10 mg/kg i.p. 10 minutes before 48/80, 10 minutes after 48/80
[2] = 10 mg/kg i.p. 10 minutes before 48/80, 20 minutes after 48/80
[3] = 10 mg/kg i.p. 10 minutes before 48/80, 30 minutes after 48/80
[4] = 10 mg/kg i.p. 10 minutes before 48/80, 40 minutes after 48/80
[5] = 10 mg/kg i.p. 10 minutes before 48/80, 50 minutes after 48/80
[6] = 10 mg/kg i.p. 10 minutes before 48/80, 60 minutes after 48/80
[7] = 20 mg/kg i.p. 30 minutes after 48/80, time 10 minutes (before dosing)
[8] = 20 mg/kg i.p. 30 minutes after 48/80, time 20 minutes (before dosing)
[9] = 20 mg/kg i.p. 30 minutes after 48/80, time 30 minutes
[10] = 20 mg/kg i.p. 30 minutes after 48/80, time 40 minutes
[11] = 20 mg/kg i.p. 30 minutes after 48/80, time 50 minutes
[12] = 20 mg/kg i.p. 30 minutes after 48/80, time 60 minutes
[13] = horse CB, 0.2 mg/kg, iv., before treatment 8.8
[14] = horse CB, 0.2 mg/kg, iv., before treatment 8.2

Molecule: O=C1CC[C@@]2(O)[C@H]3Cc4ccc(O)c5c4[C@@]2(CCN3CC2CC2)[C@H]1O5 [Naltrexone]
- Cumulative Scratches (BALB/c male mice; [1]): 0
- Cumulative Scratches (BALB/c male mice; [2]): 0
- Cumulative Scratches (BALB/c male mice; [3]): 0
- Cumulative Scratches (BALB/c male mice; [4]): 1
- Cumulative Scratches (BALB/c male mice; [5]): 61
- Cumulative Scratches (BALB/c male mice; [6]): 73

Molecule: C=CCN1CC[C@]23c4c5ccc(O)c4O[C@H]2C(=O)CC[C@]3(O)[C@H]1C5 [(+) naloxone]
- Cumulative Scratches (BALB/c male mice; [7]): 4
- Cumulative Scratches (BALB/c male mice; [8]): 48
- Cumulative Scratches (BALB/c male mice; [9]): 105
- Cumulative Scratches (BALB/c male mice; [10]): 112
- Cumulative Scratches (BALB/c male mice; [11]): 146
- Cumulative Scratches (BALB/c male mice; [12]): 175
- Duration of Effect (crib-biting horses; horse CB, 0.12 mg/kg, iv.): 60 min
- lag before effect (crib-biting horses; horse CB, 0.12 mg/kg, iv.): (30 min lag)
- Crib-biting Frequency number per minute After treatment (crib-biting horses; horse CB, 0.12 mg/kg, iv., before treatment 10): 6.6 number per minute
- Duration of Effect (crib-biting horses; horse CB, 0.18 mg/kg, i.v.): 60 min
- lag before effect (crib-biting horses; horse CB, 0.18 mg/kg, i.v.): (no lag)
- Crib-biting Frequency number per minute After treatment (crib-biting horses; horse CB, 0.18 mg/kg, i.v., before treatment 9.2): 0.8 number per minute

Molecule: CCC(=O)C(C[C@H](C)N(C)C)(c1ccccc1)c1ccccc1 [(+) Methadone]
- Cumulative Scratches (BALB/c male mice; 5 mg/kg i.p. 30 minutes after 48/80, time 10 minutes (before dosing)): 0
- Cumulative Scratches (BALB/c male mice; 5 mg/kg i.p. 30 minutes after 48/80, time 20 minutes (before dosing)): 56
- Cumulative Scratches (BALB/c male mice; 5 mg/kg i.p. 30 minutes after 48/80, time 30 minutes): 114
- Cumulative Scratches (BALB/c male mice; 5 mg/kg i.p. 30 minutes after 48/80, time 40 minutes): 145
- Cumulative Scratches (BALB/c male mice; 5 mg/kg i.p. 30 minutes after 48/80, time 50 minutes): 210
- Cumulative Scratches (BALB/c male mice; 5 mg/kg i.p. 30 minutes after 48/80, time 60 minutes): 267
- Cumulative Scratches (BALB/c male mice; [1]): 0
- Cumulative Scratches (BALB/c male mice; [2]): 0
- Cumulative Scratches (BALB/c male mice; [3]): 0
- Cumulative Scratches (BALB/c male mice; [4]): 0
- Cumulative Scratches (BALB/c male mice; [5]): 0
- Cumulative Scratches (BALB/c male mice; [6]): 0
- Cumulative Scratches (BALB/c male mice; 10 mg/kg i.p. 30 minutes after 48/80, time 10 minutes (before dosing)): 6
- Cumulative Scratches (BALB/c male mice; 10 mg/kg i.p. 30 minutes after 48/80, time 20 minutes (before dosing)): 38
- Cumulative Scratches (BALB/c male mice; 10 mg/kg i.p. 30 minutes after 48/80, time 30 minutes): 106
- Cumulative Scratches (BALB/c male mice; 10 mg/kg i.p. 30 minutes after 48/80, time 40 minutes): 107
- Cumulative Scratches (BALB/c male mice; 10 mg/kg i.p. 30 minutes after 48/80, time 50 minutes): 107
- Cumulative Scratches (BALB/c male mice; 10 mg/kg i.p. 30 minutes after 48/80, time 60 minutes): 107
- rate of crib-bites per 5 minute interval (crib-biting horses; 50 mg in 25 ml saline i.v., control rate approximately 10 crib-bites per minute, resumed during the next 80 minutes): decreased between the second and the fifth 5-minute interval following injection
- Crib-biting Frequency number per minute After treatment (crib-biting horses; [13]): 2.6 number per minute
- Duration of Effect (crib-biting horses; [13]): 20 min
- lag before effect (crib-biting horses; [13]): (10 min lag)
- Duration of Effect (crib-biting horses; horse CB, .01 mg/kg, iv.): 10 min
- Crib-biting Frequency number per minute After treatment (crib-biting horses; horse CB, .01 mg/kg, iv., before treatment 8.2): 5.5 number per minute

Molecule: (−) naloxone
- Duration of Effect (crib-biting horses; horse CB, .04 mg/kg, i.v.): 65 min
- lag before effect (crib-biting horses; horse CB, .04 mg/kg, i.v.): (10 min lag)
- Crib-biting Frequency number per minute After treatment (crib-biting horses; horse CB, .04 mg/kg, i.v., before treatment 12): 0.1 number per minute

Molecule: O=C(CCCN1CCC(O)(c2ccc(Cl)cc2)CC1)c1ccc(F)cc1 [Haloperidol]
- Cumulative Scratches (BALB/c male mice; 2.0 mg/kg i.p. 30 minutes after 48/80, time 10 minutes (before dosing)): 2
- Cumulative Scratches (BALB/c male mice; 2.0 mg/kg i.p. 30 minutes after 48/80, time 20 minutes (before dosing)): 87
- Cumulative Scratches (BALB/c male mice; 2.0 mg/kg i.p. 30 minutes after 48/80, time 30 minutes): 108
- Cumulative Scratches (BALB/c male mice; 2.0 mg/kg i.p. 30 minutes after 48/80, time 40 minutes): 137
- Cumulative Scratches (BALB/c male mice; 2.0 mg/kg i.p. 30 minutes after 48/80, time 50 minutes): 137
- Cumulative Scratches (BALB/c male mice; 2.0 mg/kg i.p. 30 minutes after 48/80, time 60 minutes): 142

Molecule: CNC1(c2ccccc2Cl)CCCCC1=O (stereo not drawn) [ketamine]
- Crib-biting Frequency number per minute After treatment (crib-biting horses; [14]): 1.3 number per minute
- Duration of Effect (crib-biting horses; [14]): 50 min
- lag before effect (crib-biting horses; [14]): (no lag)

Molecule: COc1ccc2c(c1)[C@]13CCCC[C@@H]1[C@H](C2)N(C)CC3 [Dextromethorphan]
- Cumulative Scratches (BALB/c male mice; [1]): 1
- Cumulative Scratches (BALB/c male mice; [2]): 57
- Cumulative Scratches (BALB/c male mice; [3]): 105
- Cumulative Scratches (BALB/c male mice; [4]): 157
- Cumulative Scratches (BALB/c male mice; [5]): 182
- Cumulative Scratches (BALB/c male mice; [6]): 192
- Cumulative Scratches (BALB/c male mice; [7]): 47
- Cumulative Scratches (BALB/c male mice; [8]): 125
- Cumulative Scratches (BALB/c male mice; [9]): 158
- Cumulative Scratches (BALB/c male mice; [10]): 171
- Cumulative Scratches (BALB/c male mice; [11]): 178
- Cumulative Scratches (BALB/c male mice; [12]): 185
- Duration of Effect (stall-walking horse): 45 min
- lag before effect (stall-walking horse): (no lag)
- turns per min. After treatment (stall-walking horse; before treatment 3.5 turns per min.): .3 turns turns per min.
- Duration of Effect (crib-biting horses; horse CB, 1.0 mg/kg, i.v.): 35 min
- lag before effect (crib-biting horses; horse CB, 1.0 mg/kg, i.v.): (no lag)
- Crib-biting Frequency number per minute After treatment (crib-biting horses; horse CB, 1.0 mg/kg, i.v., before treatment 7.6): 0.3 number per minute
- Duration of Effect (crib-biting horses; horse CB, 1.0 mg/kg, p.o.): 90 min
- lag before effect (crib-biting horses; horse CB, 1.0 mg/kg, p.o.): (35 min lag)
- Crib-biting Frequency number per minute After treatment (crib-biting horses; horse CB, 1.0 mg/kg, p.o., before treatment 8): 1.7 number per minute
- Duration of Effect (crib-biting horses; horse Frito, 3.2 mg/kg p.o.): 100 min
- lag before effect (crib-biting horses; horse Frito, 3.2 mg/kg p.o.): (30 min lag)
- Crib-biting Frequency number per minute After treatment (crib-biting horses; horse Frito, 3.2 mg/kg p.o., before treatment 3.5): 1.8 number per minute
